From patent publication US20240270762A1, “PENICILLIN-BINDING PROTEIN INHIBITORS” (priority 2021, published 2024)

Target: T1, A. baumannii PBP1a (Acinetobacter baumannii, UniProt A0ABX6CK30)
T1 sequence (A0ABX6CK30 1-851): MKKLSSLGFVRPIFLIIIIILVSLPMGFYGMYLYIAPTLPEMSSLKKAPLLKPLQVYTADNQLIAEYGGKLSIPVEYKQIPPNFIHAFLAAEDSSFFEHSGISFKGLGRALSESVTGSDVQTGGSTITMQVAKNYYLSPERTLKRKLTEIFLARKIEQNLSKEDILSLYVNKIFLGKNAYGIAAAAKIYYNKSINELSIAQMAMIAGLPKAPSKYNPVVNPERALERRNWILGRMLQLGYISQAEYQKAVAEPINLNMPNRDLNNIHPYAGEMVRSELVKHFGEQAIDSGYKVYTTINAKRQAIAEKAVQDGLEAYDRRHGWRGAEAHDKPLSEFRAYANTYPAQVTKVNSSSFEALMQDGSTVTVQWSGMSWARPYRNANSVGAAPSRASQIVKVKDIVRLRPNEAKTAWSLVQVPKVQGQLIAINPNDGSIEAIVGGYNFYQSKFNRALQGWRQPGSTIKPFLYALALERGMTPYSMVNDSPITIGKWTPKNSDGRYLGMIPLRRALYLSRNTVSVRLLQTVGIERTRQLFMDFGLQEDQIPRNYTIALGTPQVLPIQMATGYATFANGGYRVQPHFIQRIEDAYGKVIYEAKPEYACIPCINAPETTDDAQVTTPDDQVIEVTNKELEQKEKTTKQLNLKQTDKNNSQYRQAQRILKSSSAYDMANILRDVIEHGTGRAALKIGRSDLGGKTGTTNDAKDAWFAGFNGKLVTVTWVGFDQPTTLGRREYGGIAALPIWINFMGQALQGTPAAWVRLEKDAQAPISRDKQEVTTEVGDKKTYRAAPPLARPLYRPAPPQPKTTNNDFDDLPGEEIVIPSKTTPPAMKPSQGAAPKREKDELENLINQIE
Assay: Bocillin-FL competition binding via gel filtration, A. baumannii PBP1a
Details: competition binding assay using Bocillin-FL via gel filtration; read-out: A. baumannii PBP1a Potency
How it was run: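 Competitive equilibrium binding with Bocillin-FL reporter: PBP pre-incubated with inhibitor dilutions, Bocillin-FL added, 15 min incubation. Labelled enzyme isolated by size-exclusion spin plates, fluorescence measured; EC50 obtained by fitting bound fraction against inhibitor concentration with a Hill-coefficient model.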

Row | Structure (SMILES) | EC50 [µM]
1 | CN(CCN1CCN(C(=O)N[C@@H](C(=O)N[C@H]2Cc3ccc(F)c(C(=O)O)c3OB2O)c2cc(F)c(O)c(O)c2Cl)C(=O)C1=O)Cc1cccnc1 [Example 201, (R)-3-((R)-2-(2-chloro-5-fluoro-3,4-dihydroxyphenyl)-2-(4-(2-(methyl(pyridin-3-ylmethyl)amino)ethyl)-2,3-dioxopiperazine-1-carboxamido)acetamido)-7-fluoro-2-hydroxy-3,4-dihydro-2H-benzo[e][1,2]oxaborinine-8-carboxylic acid] | 10 to 50
2 | O=C(NCCN1CCN(C(=O)NC(C(=O)N[C@H]2Cc3ccc(F)c(C(=O)O)c3OB2O)c2cc(F)c(O)c(O)c2Cl)C(=O)C1=O)c1ccccc1 (stereo partly drawn) [Example 207, (3R)-3-(2-(4-(2-benzamidoethyl)-2,3-dioxopiperazine-1-carboxamido)-2-(2-chloro-5-fluoro-3,4-dihydroxyphenyl)acetamido)-7-fluoro-2-hydroxy-3,4-dihydro-2H-benzo[e][1,2]oxaborinine-8-carboxylic acid] | 10 to 50
3 | O=C(CN1CCN(C(=O)NC(C(=O)N[C@H]2Cc3ccc(F)c(C(=O)O)c3OB2O)c2cc(F)c(O)c(O)c2Cl)C(=O)C1=O)Nc1ccc(O)cc1 (stereo partly drawn) [Example 230, (3R)-3-(2-(2-chloro-5-fluoro-3,4-dihydroxyphenyl)-2-(4-(2-((4-hydroxyphenyl)amino)-2-oxoethyl)-2,3-dioxopiperazine-1-carboxamido)acetamido)-7-fluoro-2-hydroxy-3,4-dihydro-2H-benzo[e][1,2]oxaborinine-8-carboxylic acid] | 10 to 50
4 | O=C(NCCN1CCN(C(=O)NC(C(=O)N[C@H]2Cc3ccc(F)c(C(=O)O)c3OB2O)c2cc(F)c(O)c(O)c2Cl)C1=O)c1ccc(O)cc1 (stereo partly drawn) [Example 243, (3R)-3-(2-(2-chloro-5-fluoro-3,4-dihydroxyphenyl)-2-(3-(2-(4-hydroxybenzamido)ethyl)-2-oxoimidazolidine-1-carboxamido)acetamido)-7-fluoro-2-hydroxy-3,4-dihydro-2H-benzo[e][1,2]oxaborinine-8-carboxylic acid] | 10 to 50
5 | O=C(NCCN1CCN(C(=O)NC(C(=O)N[C@H]2Cc3ccc(F)c(C(=O)O)c3OB2O)c2cc(F)c(O)c(O)c2Cl)C1=O)c1cccc(O)c1 (stereo partly drawn) [Example 244, (3R)-3-(2-(2-chloro-5-fluoro-3,4-dihydroxyphenyl)-2-(3-(2-(3-hydroxybenzamido)ethyl)-2-oxoimidazolidine-1-carboxamido)acetamido)-7-fluoro-2-hydroxy-3,4-dihydro-2H-benzo[e][1,2]oxaborinine-8-carboxylic acid] | 10 to 50
6 | O=C(NCCCS(=O)(=O)N1CCN(C(=O)NC(C(=O)N[C@H]2Cc3ccc(F)c(C(=O)O)c3OB2O)c2cc(F)c(O)c(O)c2Cl)C1=O)c1ccncc1 (stereo partly drawn) [Example 272, (3R)-3-(2-(2-chloro-5-fluoro-3,4-dihydroxyphenyl)-2-(3-((3-(isonicotinamido)propyl)sulfonyl)-2-oxoimidazolidine-1-carboxamido)acetamido)-7-fluoro-2-hydroxy-3,4-dihydro-2H-benzo[e][1,2]oxaborinine-8-carboxylic acid] | 10 to 50
7 | O=C(NCCCS(=O)(=O)N1CCN(C(=O)NC(C(=O)N[C@H]2Cc3ccc(F)c(C(=O)O)c3OB2O)c2cc(F)c(O)c(O)c2Cl)C1=O)c1nccs1 (stereo partly drawn) [Example 274, (3R)-3-(2-(2-chloro-5-fluoro-3,4-dihydroxyphenyl)-2-(2-oxo-3-((3-(thiazole-2-carboxamido)propyl)sulfonyl)imidazolidine-1-carboxamido)acetamido)-7-fluoro-2-hydroxy-3,4-dihydro-2H-benzo[e][1,2]oxaborinine-8-carboxylic acid] | < 10
8 | O=C(NCCCS(=O)(=O)N1CCN(C(=O)NC(C(=O)N[C@H]2Cc3ccc(F)c(C(=O)O)c3OB2O)c2cc(F)c(O)c(O)c2Cl)C1=O)Nc1ccc(O)cc1 (stereo partly drawn) [Example 276, (3R)-3-(2-(2-chloro-5-fluoro-3,4-dihydroxyphenyl)-2-(3-((3-(3-(4-hydroxyphenyl)ureido)propyl)sulfonyl)-2-oxoimidazolidine-1-carboxamido)acetamido)-7-fluoro-2-hydroxy-3,4-dihydro-2H-benzo[e][1,2]oxaborinine-8-carboxylic acid] | < 10
